The values below come from patent publication US8883782B2, “Spiro-tetracyclic ring compounds as beta-secretase modulators and methods of use” (Amgen Inc., priority 2010, dated 2014).

Structures are written as SMILES. Read-outs that look alike come from different tables or passages of the source.

The test system of assay [1] is Aβ40 in conditioned medium of cells stably expressing Amyloid Precursor Protein (APP). In words: In vitro BACE cell-based assay (Aβ40 in conditioned medium, sandwich ELISA). The conditions noted are these: read-out: HEK cell assay. Put shortly: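 Conditioned medium from stably APP-expressing cells treated with compound dose series is assayed for Aβ40 by sandwich ELISA with time-resolved fluorescence detection. IC50 is calculated from percent inhibition of Aβ40 against compound concentration.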
In general terms: ELISA stands for enzyme-linked immunosorbent assay.

The target of assay [2] is Beta Secretase enzyme (BACE) (Homo sapiens, UniProt P56817). In words: In vitro enzymatic BACE FRET (fluorescence resonance energy transfer) assay. The assay is classed as biochemical. The note with it: average IC50, enzyme assay; read-out: BACE 1 FRET assay. The essentials:
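Run in 0.05 M acetate pH 4.2 with 10% DMSO final and 100 uM genapol; started by adding 50 nM FRET peptide substrate (fluorophore and quencher flanking the cleavage site), incubated one hour, then stopped with Tris to neutral pH before reading fluorescence.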

[3] abbreviates: Homo sapiens, HEK293, average IC50, HEK cells.

Beta Secretase enzyme (BACE), sequence (P56817 46-501, species assumed): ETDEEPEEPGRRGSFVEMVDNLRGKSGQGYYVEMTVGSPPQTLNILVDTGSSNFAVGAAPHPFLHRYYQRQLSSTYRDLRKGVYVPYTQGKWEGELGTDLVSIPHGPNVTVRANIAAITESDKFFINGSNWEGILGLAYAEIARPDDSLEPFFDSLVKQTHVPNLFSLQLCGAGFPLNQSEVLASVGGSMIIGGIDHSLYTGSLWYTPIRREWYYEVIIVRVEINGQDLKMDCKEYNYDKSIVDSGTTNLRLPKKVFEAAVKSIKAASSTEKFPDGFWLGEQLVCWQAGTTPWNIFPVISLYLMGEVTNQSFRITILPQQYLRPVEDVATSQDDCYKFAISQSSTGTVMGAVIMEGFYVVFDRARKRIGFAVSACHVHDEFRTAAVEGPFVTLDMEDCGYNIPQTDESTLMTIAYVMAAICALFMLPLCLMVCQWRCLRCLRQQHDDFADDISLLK

Consider `CC(C)(C#N)COc1ccc2c(c1)[C@@]1(COC(N)=N1)c1cc(C3=CCOCC3)cc(F)c1O2` [Example 441, 3-(((4S)-2-amino-7′-(3,6-dihydro-2H-pyran-4-yl)-5′-fluorospiro[1,3-oxazole-4,9′-xanthen]-2′-yl)oxy)-2,2-dimethylpropanenitrile], for which the IC50 in assay [1] (setting [3]) amounted to 14.4 nM; in assay [2], 4 nM.

With `CC(C)(C#N)COc1ccc2c(c1)[C@@]1(COC(N)=N1)c1cc(Br)cc(F)c1O2` [Example 442, 3-(((4S)-2-amino-7′-bromo-5′-fluorospiro[1,3-oxazole-4,9′-xanthen]-2′-yl)oxy)-2,2-dimethylpropanenitrile], the IC50 in assay [1] (setting [3]) came to 1810 nM; in assay [2], 152 nM.

`Cn1cc(-c2cc(F)c3c(c2)[C@]2(COC(N)=N2)c2cc(OCC4(C)COC4)ccc2O3)cn1` [Example 444, (4S)-4′-fluoro-7′-((3-methyl-3-oxetanyl)methoxy)-2′-(1-methyl-1H-pyrazol-4-yl)spiro[1,3-oxazole-4,9′-xanthen]-2-amine]: the figures for the IC50 in assay [1] (setting [3]) and in assay [2] were 38.6 nM and 20 nM, respectively.

In the case of `Cc1cc(-c2cc(F)c3c(c2)[C@]2(COC(N)=N2)c2cc(OCC4(C)COC4)ccc2O3)cnc1F` [Example 445, (4S)-4′-fluoro-2′-(6-fluoro-5-methyl-3-pyridinyl)-7′-((3-methyl-3-oxetanyl)methoxy)spiro[1,3-oxazole-4,9′-xanthen]-2-amine], the IC50 in assay [1] (setting [3]) was determined as 188 nM; in assay [2] it was 41.6 nM.

For the molecule `Cc1cncc(-c2ccc3c(c2)[C@@]2(COC(N)=N2)c2cc(C4=CCOCC4)cc(F)c2O3)c1` [Example 446, (4S)-2′-(3,6-dihydro-2H-pyran-4-yl)-4′-fluoro-7′-(5-methyl-3-pyridinyl)spiro[1,3-oxazole-4,9′-xanthen]-2-amine], the IC50 in assay [1] (setting [3]) was 5.4 nM; in assay [2], 1.9 nM.

Consider `NC1=N[C@@]2(CO1)c1cc(-c3cncc(F)c3)ccc1Oc1c(F)cc(C3=CCOCC3)cc12` [Example 447, (4S)-2′-(3,6-dihydro-2H-pyran-4-yl)-4′-fluoro-7′-(5-fluoro-3-pyridinyl)spiro[1,3-oxazole-4,9′-xanthen]-2-amine], for which the IC50 in assay [1] (setting [3]) stood at 5.1 nM; in assay [2] it was 1.1 nM.

On to `NC1=N[C@@]2(CO1)c1cc(-c3cncc(F)c3)ccc1Oc1c(F)cc(C3CCOCC3)cc12` [Example 448, (4S)-4′-fluoro-7′-(5-fluoro-3-pyridinyl)-2′-(tetrahydro-2H-pyran-4-yl)spiro[1,3-oxazole-4,9′-xanthen]-2-amine], for which the values for the IC50 in assay [1] (setting [3]) and in assay [2] were 7.7 nM and 2.4 nM, respectively.

Consider `CC1(C)C[C@@H](c2cc(F)c3c(c2)[C@]2(COC(N)=N2)c2cc(-c4cnccn4)ccc2O3)CCO1` [Example 449, (4S)-2′-((4S)-2,2-dimethyltetrahydro-2H-pyran-4-yl)-4′-fluoro-7′-(2-pyrazinyl)spiro[1,3-oxazole-4,9′-xanthen]-2-amine], for which the IC50 in assay [1] (setting [3]) amounted to 20 nM; in assay [2], 3.7 nM.

For `CC1(C)C[C@H](c2cc(F)c3c(c2)[C@]2(COC(N)=N2)c2cc(-c4cnccn4)ccc2O3)CCO1` [Example 450, (4S)-2′-((4R)-2,2-dimethyltetrahydro-2H-pyran-4-yl)-4′-fluoro-7′-(2-pyrazinyl)spiro[1,3-oxazole-4,9′-xanthen]-2-amine], the IC50 amounted to 17.7 nM in assay [1] (setting [3]) and 2.4 nM in assay [2].

Turning to `NC1=N[C@@]2(CO1)c1cc(-c3cccnc3F)ccc1Oc1c(F)cc(-c3ccnc(F)c3)cc12` [Example 451, (4S)-4′-fluoro-7′-(2-fluoro-3-pyridinyl)-2′-(2-fluoro-4-pyridinyl)spiro[1,3-oxazole-4,9′-xanthen]-2-amine], the values for the IC50 in assay [1] (setting [3]) and in assay [2] were 10.3 nM and 0.5 nM, respectively.

With `CC1(C)C[C@H](c2cnc3c(c2)[C@]2(COC(N)=N2)c2cc(-c4cccnc4F)ccc2O3)CCO1` [Example 453, (5S)-3-((4R)-2,2-dimethyltetrahydro-2H-pyran-4-yl)-7-(2-fluoro-3-pyridinyl)spiro[chromeno[2,3-b]pyridine-5,4′-[1,3]oxazol]-2′-amine], the figures for the IC50 in assay [1] (setting [3]) and in assay [2] were 12.2 nM and 2.4 nM, respectively.

Regarding `NC1=N[C@@]2(CO1)c1cc(-c3cc(Cl)cnc3F)ccc1Oc1ncc(C3=CCOCC3)cc12` [Example 454, (5S)-7-(5-chloro-2-fluoro-3-pyridinyl)-3-(3,6-dihydro-2H-pyran-4-yl)spiro[chromeno[2,3-b]pyridine-5,4′-[1,3]oxazol]-2′-amine], the IC50 is 3.2 nM in assay [1] (setting [3]) and 0.9 nM in assay [2].

For `CC1(C#Cc2cnc3c(c2)[C@]2(COC(N)=N2)c2cc(-c4cc(Cl)cnc4F)ccc2O3)COC1` [Example 456, (5S)-7-(5-chloro-2-fluoro-3-pyridinyl)-3-((3-methyl-3-oxetanyl)ethynyl)spiro[chromeno[2,3-b]pyridine-5,4′-[1,3]oxazol]-2′-amine], the IC50 in assay [1] (setting [3]) turned out to be 2.2 nM; in assay [2], 0.6 nM.

Turning to `NC1=N[C@@]2(CO1)c1cc(-c3cncc(F)c3)ccc1Oc1ncc(C3=CCOCC3)cc12` [Example 457, (5S)-3-(3,6-dihydro-2H-pyran-4-yl)-7-(5-fluoro-3-pyridinyl)spiro[chromeno[2,3-b]pyridine-5,4′-[1,3]oxazol]-2′-amine], the IC50 in assay [1] (setting [3]) came to 6.6 nM; in assay [2], 1.5 nM.

With `CC1(C#Cc2cnc3c(c2)[C@]2(COC(N)=N2)c2cc(-c4cncc(F)c4)ccc2O3)COC1` [Example 458, (5S)-7-(5-fluoro-3-pyridinyl)-3-((3-methyl-3-oxetanyl)ethynyl)spiro[chromeno[2,3-b]pyridine-5,4′-[1,3]oxazol]-2′-amine], the IC50 in assay [1] (setting [3]) came out at 5.1 nM; in assay [2] it was 1.2 nM.

Take `COc1cncc(-c2ccc3c(c2)[C@@]2(COC(N)=N2)c2cc(C4=CCOCC4)cnc2O3)c1` [Example 459, (5S)-3-(3,6-dihydro-2H-pyran-4-yl)-7-(5-methoxy-3-pyridinyl)spiro[chromeno[2,3-b]pyridine-5,4′-[1,3]oxazol]-2′-amine]: the IC50 in assay [1] (setting [3]) is 6.2 nM; in assay [2], 2.2 nM.

With `COc1cncc(-c2ccc3c(c2)[C@@]2(COC(N)=N2)c2cc(C#CC4(C)COC4)cnc2O3)c1` [Example 461, (5S)-7-(5-methoxy-3-pyridinyl)-3-((3-methyl-3-oxetanyl)ethynyl)spiro[chromeno[2,3-b]pyridine-5,4′-[1,3]oxazol]-2′-amine], the IC50 in assay [1] (setting [3]) turned out to be 6.3 nM; in assay [2] it was 1.8 nM.

As to `CC1(C#Cc2ccc3c(c2)[C@@]2(COC(N)=N2)c2cc(C4=CCOCC4)cnc2O3)COC1` [Example 462, (5S)-3-(3,6-dihydro-2H-pyran-4-yl)-7-((3-methyl-3-oxetanyl)ethynyl)spiro[chromeno[2,3-b]pyridine-5,4′-[1,3]oxazol]-2′-amine], the IC50 in assay [1] (setting [3]) turned out to be 18.9 nM; in assay [2], 5.9 nM.

Consider `CC(C)(C)C#Cc1ccc2c(c1)[C@@]1(COC(N)=N1)c1cc(N3CCOCC3)cnc1O2` [Example 464, (5S)-7-(3,3-dimethyl-1-butyn-1-yl)-3-(4-morpholinyl)spiro[chromeno[2,3-b]pyridine-5,4′-[1,3]oxazol]-2′-amine], for which the IC50 was 69 nM in assay [1] (setting [3]) and 12.8 nM in assay [2].

For the molecule `CC1(C)C[C@@H](c2cnc3c(c2)[C@]2(COC(N)=N2)c2cc(-c4cccc(Cl)c4)ccc2O3)CCO1` [Example 465, (5S)-7-(3-chlorophenyl)-3-((4S)-2,2-dimethyltetrahydro-2H-pyran-4-yl)spiro[chromeno[2,3-b]pyridine-5,4′-[1,3]oxazol]-2′-amine], the IC50 in assay [1] (setting [3]) turned out to be 11.1 nM; in assay [2] it was 1.7 nM.

With `CC1(C)C[C@@H](c2cnc3c(c2)[C@]2(COC(N)=N2)c2cc(-c4cncc(Cl)c4)ccc2O3)CCO1` [Example 466, (5S)-7-(5-chloro-3-pyridinyl)-3-((4S)-2,2-dimethyltetrahydro-2H-pyran-4-yl)spiro[chromeno[2,3-b]pyridine-5,4′-[1,3]oxazol]-2′-amine], the IC50 in assay [1] (setting [3]) was 5.6 nM; in assay [2], 2.1 nM.

As for `Cc1cc(-c2ccc3c(c2)[C@@]2(COC(N)=N2)c2cc(C4=CCOCC4)cnc2O3)cnc1F` [Example 467, (5S)-3-(3,6-dihydro-2H-pyran-4-yl)-7-(6-fluoro-5-methyl-3-pyridinyl)spiro[chromeno[2,3-b]pyridine-5,4′-[1,3]oxazol]-2′-amine], the results for the IC50 in assay [1] (setting [3]) and in assay [2] were 50.8 nM and 20.8 nM, respectively.

In the case of `Cc1cc(-c2ccc3c(c2)[C@@]2(COC(N)=N2)c2cc(C#CC4(C)COC4)cnc2O3)cnc1F` [Example 468, (5S)-7-(6-fluoro-5-methyl-3-pyridinyl)-3-((3-methyl-3-oxetanyl)ethynyl)spiro[chromeno[2,3-b]pyridine-5,4′-[1,3]oxazol]-2′-amine], the IC50 in assay [1] (setting [3]) was found to be 28.7 nM; in assay [2], 7.4 nM.

As to `CC1(C)C[C@H](c2cnc3c(c2)[C@]2(COC(N)=N2)c2cc(-c4cccnc4F)ccc2O3)CCO1` [Example 469, (5S)-3-((4R)-2,2-dimethyltetrahydro-2H-pyran-4-yl)-7-(2-fluoro-3-pyridinyl)spiro[chromeno[2,3-b]pyridine-5,4′-[1,3]oxazol]-2′-amine], the IC50 in assay [1] (average IC50, HEK cells) came out at 13.9 nM; in assay [2], 2.8 nM.

On to `CC1(C)C[C@@H](c2cnc3c(c2)[C@]2(COC(N)=N2)c2cc(-c4cccnc4F)ccc2O3)CCO1` [Example 470, (5S)-3-((4S)-2,2-dimethyltetrahydro-2H-pyran-4-yl)-7-(2-fluoro-3-pyridinyl)spiro[chromeno[2,3-b]pyridine-5,4′-[1,3]oxazol]-2′-amine], for which the values for the IC50 in assay [1] (setting [3]) and in assay [2] were 14.9 nM and 3.3 nM, respectively.

With `CC1(C)C[C@H](c2cnc3c(c2)[C@]2(COC(N)=N2)c2cc(-c4cccc(C#N)c4)ccc2O3)CCO1` [Example 471, 3-((5S)-2′-amino-3-((4R)-2,2-dimethyltetrahydro-2H-pyran-4-yl)spiro[chromeno[2,3-b]pyridine-5,4′-[1,3]oxazol]-7-yl)benzonitrile], the IC50 in assay [1] (average IC50, HEK cells) came to 14 nM; in assay [2], 5.1 nM.
